Measured values reported in PubChem BioAssay (NCI).
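48-hour exposure; five concentrations; linearly interpolated endpoints. GI50 marks 50% less growth. TGI: concentration producing complete growth inhibition.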

Columns and labels:
Assay in all cases: NCI anticancer screen, dose series, 48 h
[1] = system: EKVX NSCLC
[2] = system: HCC-2998 colon
[3] = system: NCI-H522 lung
[4] = system: RXF 393 renal
[5] = system: SK-MEL-2 melanoma
[6] = system: SK-MEL-5 melanoma
[7] = system: SNB-19 CNS
[8] = system: T-47D breast
[9] = system: UACC-257 melanoma
[10] = system: UACC-62 melanoma

| SMILES | TGI [1] [µM] | TGI [2] [µM] | TGI [3] [µM] | TGI [4] [µM] | TGI [5] [µM] | TGI [6] [µM] | TGI [7] [µM] | TGI [8] [µM] | TGI [9] [µM] | TGI [10] [µM] | GI50 [1] [µM] | GI50 [2] [µM] | GI50 [3] [µM] | GI50 [4] [µM] | GI50 [5] [µM] | GI50 [6] [µM] | GI50 [7] [µM] | GI50 [8] [µM] | GI50 [9] [µM] | GI50 [10] [µM] |
| --- | --- | --- | --- | --- | --- | --- | --- | --- | --- | --- | --- | --- | --- | --- | --- | --- | --- | --- | --- | --- |
| CC(C)(C)[Si](C)(C)OC[C@H](/C=C\CCCC(=O)O)NC1(c2ccccc2)c2ccccc2-c2ccccc21 | 40.9 | 37.2 | > 100 | 25 | 26.7 | 23.3 | > 100 | > 100 | 43.4 | 36 | – | – | – | – | – | – | – | – | – | – |
| COc1cc(/C=N/NC2=NCCN2)ccc1O | > 100 | > 100 | > 100 | > 100 | > 100 | > 100 | > 100 | > 100 | > 100 | > 100 | – | – | – | – | – | – | – | – | – | – |
| O=[N+]([O-])/C(C(Cl)=C(Cl)Cl)=C(/Nc1ccccc1)Sc1ccccc1 | 38 | 32.8 | 33.6 | 40.3 | – | 36.7 | 34.3 | 59.8 | 35.6 | 39.9 | – | – | – | – | – | – | – | – | – | – |
| Nc1cc2c3c(cccc3c1)C(=O)N(c1ccc(OCCN3CCCC3)cc1)C2=O | 46.1 | 31.3 | 30.7 | 32.2 | 38 | 36.9 | 41.9 | 51.6 | 31.5 | 33.3 | – | – | – | – | – | – | – | – | – | – |
| CCCCCCCCCCCCO[P+](=O)OCCCCCCCCCCCC | > 100 | > 100 | > 100 | > 100 | > 100 | > 100 | > 100 | > 100 | 62.2 | > 100 | – | – | – | – | – | – | – | – | – | – |
| C=C1CC2[C@H](C)C(=O)CCC2(C)C2=C1C1CCC(C(C)CCC(=C)C(C)C(=O)O)C1(C)CC2=O (some centres undefined) | > 100 | > 100 | > 100 | 86.4 | > 100 | > 100 | > 100 | > 100 | 96 | > 100 | – | – | – | – | – | – | – | – | – | – |
| CC[C@@]1(O)C(=O)OCc2c1cc1n(c2=O)Cc2c-1nc1ccccc1c2/C=N\NC(=O)C(N)Cc1c[nH]c2ccccc12 (some centres undefined) | > 100 | > 65.7 | 32.3 | 1.21 | 36.3 | 2.49 | 1.74 | > 100 | > 38 | 0.712 | – | – | – | – | – | – | – | – | – | – |
| O=c1[nH]c2ccc([N+](=O)[O-])cc2nc1/C=C(\O)c1ccccc1 | > 100 | > 100 | 34.6 | 49.8 | > 100 | > 100 | 31.8 | > 100 | > 100 | > 100 | – | – | – | – | – | – | – | – | – | – |
| CN(C)CCNC(=O)c1c(O)ccc2c1c1c(n2CCc2ccccc2)C(=O)c2ccccc2C1=O | 28.5 | 2.96 | 23 | 5.17 | 10.7 | 7.21 | 23.8 | 8.5 | 10.4 | 5.56 | – | – | – | – | – | – | – | – | – | – |
| Cc1ccc(NC(=O)CC(=O)n2nc(C)c(N=Nc3cccc(C)c3)c2C)cc1 | > 100 | > 100 | > 100 | > 100 | > 100 | > 100 | > 100 | > 100 | > 100 | > 100 | – | – | – | – | – | – | – | – | – | – |
| CN(C)CCCNC(=O)c1cn2c(ccc3sc4ccccc4c(=O)c32)n1 | 31.6 | 25.4 | 32.4 | 21.8 | 38.4 | 3.34 | 31.8 | 45.3 | 30.3 | 35.9 | – | – | – | – | – | – | – | – | – | – |
| COc1ccc(C2=NC(c3ccc(Cl)cc3)C(c3ccc(Cl)cc3)N2C(=O)N2CCNC(=O)C2)c(OC(C)C)c1 (centres undefined) | 4.18 | 5.57 | 4.09 | 6.84 | 4.15 | 3.39 | 4.91 | > 10 | 4.84 | 3.4 | 2.08 | 2.3 | 2.09 | 3.6 | 2.08 | 1.76 | 2.08 | 3.67 | 2.64 | 1.9 |
| Cc1ccc(/C=C2/N=C(N/N=C\c3ccccc3)NC2=O)cc1 | > 100 | 72.1 | > 100 | 66 | > 100 | > 100 | 90.5 | > 100 | > 100 | – | – | – | – | – | – | – | – | – | – | – |
| Cc1ccc(S[C@@H](C)[C@@](O)(C(N)=O)c2ccccc2)cc1 | > 100 | > 100 | 33 | > 100 | > 100 | 81.1 | > 100 | > 100 | > 100 | > 100 | – | – | – | – | – | – | – | – | – | – |
| CCOC(=O)C1=C(C)N(Cc2ccccc2)C2(O)C=CC(=O)C3=C(O)c4ccccc4C(=O)C312 (centres undefined) | 39.6 | 31.1 | 27.2 | 19.7 | 30.4 | 22 | 88.7 | 45 | 32.6 | 31.1 | – | – | – | – | – | – | – | – | – | – |
| O=C(N/N=C\c1ccc([N+](=O)[O-])s1)c1ccncc1 | 45.6 | 24 | 19.7 | 56.6 | 68.5 | 12.8 | > 77.4 | 48.4 | 31.8 | 15.7 | – | – | – | – | – | – | – | – | – | – |
| NS(=O)(=O)c1ccc(N=Nc2ccc(O)c(C(=O)O)c2)cc1 | > 100 | > 100 | > 100 | > 100 | > 100 | > 100 | > 100 | > 100 | > 100 | > 100 | – | – | – | – | – | – | – | – | – | – |
| CCOc1cc2c(cc1O)C(N)C[C@@H]1[C@@H]2CC[C@]2(C)[C@@H](O)CC[C@@H]12 (some centres undefined) | > 100 | > 100 | > 100 | > 100 | > 100 | > 100 | > 100 | > 100 | > 100 | > 100 | – | – | – | – | – | – | – | – | – | 18.7 |
| CC/C(N)=N\NC(=O)OC(C)(C)C | > 100 | > 100 | > 100 | > 100 | > 100 | > 100 | > 100 | > 100 | > 100 | > 100 | – | – | – | – | – | – | – | – | – | – |
